Data as given in ChEMBL document CHEMBL2086306, “Manadosterols A and B, sulfonated sterol dimers inhibiting the Ubc13-Uev1A interaction, isolated from the marine sponge Lissodendryx fibrosa” (J Nat Prod, 2012).

Legend:
[1] = target: Ubiquitin-conjugating enzyme E2 N/Ubiquitin-conjugating enzyme E2 variant 1 (Homo sapiens, UniProt P61088+Q13404); assay: Inhibition of recombinant human Ubc13-Uev1A interaction expressed in Escherichia BL21 after 1.5 hrs by ELISA
[2] = target: Ubiquitin-conjugating enzyme E2 N/Ubiquitin-conjugating enzyme E2 variant 1 (Homo sapiens) (UniProt Q13404+P61088); assay: Ratio of leucettamol A IC50 to compound IC50 for recombinant human Ubc13-Uev1A interaction expressed in Escherichia BL21

Row | Compound | IC50 [1] [nM] | Ratio IC50 [2]
1 | CC1=CC(C)(C)[C@@H](/C=C\[C@@H](C)[C@H]2CC[C@H]3[C@@H]4C[C@H](OS(=O)(=O)O)[C@H]5C[C@H](O)[C@@H](OS(=O)(=O)O)C[C@]5(C)[C@H]4CC[C@]23C)[C@H]1CC[C@@H](C)[C@H]1CC[C@H]2[C@@H]3C[C@H](OS(=O)(=O)O)[C@H]4C[C@H](OS(=O)(=O)O)[C@@H](OS(=O)(=O)O)C[C@]4(C)[C@H]3CC[C@]12C [MANADOSTEROL A] | 90 | 1000
2 | C=C1CC(C)(C)[C@@H](/C=C/[C@@H](C)[C@H]2CC[C@H]3[C@@H]4C[C@H](OS(=O)(=O)O)[C@H]5C[C@@H](O)CC[C@]5(C)[C@H]4CC[C@]23C)[C@H]1CC(O)[C@@H](C)[C@H]1CC[C@H]2[C@@H]3C[C@H](OS(=O)(=O)O)[C@H]4C[C@H](OS(=O)(=O)O)[C@@H](OS(=O)(=O)O)C[C@]4(C)[C@H]3CC[C@]12C (stereo partly drawn) [MANADOSTEROL B] | 130 | 
